Experimental data published in publication PMC8065850 (Microorganisms, 2021).
Entries after “also recorded” stand apart in the source; their conditions may differ.

What was measured:
SARS-CoV-2 3CLpro = SARS-CoV-2 3CLpro (Severe acute respiratory syndrome coronavirus 2, UniProt P0DTD1); experiment: biochemical; type: biochemical
SARS-CoV 3CLpro = SARS-CoV 3CLpro (Severe acute respiratory syndrome coronavirus, UniProt P0C6X7); experiment: biochemical; type: biochemical
[1] = tested on: SARS-CoV-2 in infected Vero cells; settings: cited from earlier work

Row | Structure (SMILES) | inhibitory effect in library screening against SARS-CoV-2 3CLpro (in words) (SARS-CoV-2 3CLpro) | inhibitory effect in library screening against SARS-CoV 3CLpro (in words) (SARS-CoV 3CLpro) | IC50 (SARS-CoV 3CLpro) | other results
1 | C=C1[C@H](CO)[C@@H](O)C[C@@H]1n1cnc2c(=O)[nH]c(N)nc21 [No 4-3, Entecavir] | little | little | – | –
2 | Nc1ccn([C@@H]2CS[C@H](CO)O2)c(=O)n1 [No 4-4, Lamivudine] | little | little | – | –
3 | CCC(CC)COC(=O)[C@H](C)N[P@](=O)(OC[C@H]1O[C@@](C#N)(c2ccc3c(N)ncnn23)[C@H](O)[C@@H]1O)Oc1ccccc1 [remdesivir, Remdesivir] | minor inhibitory activity | – | – | –
4 | C[C@H](Cn1cnc2c(N)ncnc21)OCP(=O)(O)O [tenofovir, Tenofovir] | – | – | 14.2 µM | killing of SARS-CoV-2 in infected Vero cells [1]: kill SARS-CoV-2
5 | Nc1ccn(C[C@@H](CO)OCP(=O)(O)O)c(=O)n1 [cidofovir, Cidofovir] | – | – | > 47 µM | IC50 (SARS-CoV-2 3CLpro): > 36 µM
6 | CN1CC(=O)N2[C@H](c3ccc4c(c3)OCO4)c3[nH]c4ccccc4c3C[C@@H]2C1=O [tadalafil, Tadalafil] | did not display meaningful inhibitory activity | did not display meaningful inhibitory activity | – | –
7 | CC(C)OC(=O)[C@H](C)N[P@](=O)(OC[C@H]1O[C@@H](n2ccc(=O)[nH]c2=O)[C@](C)(F)[C@@H]1O)Oc1ccccc1 [No 2-3, Sofosbuvir] | little | little | – | –
8 | Nc1nc(O)c2ncn(COC(CO)CO)c2n1 [No 1-3, Ganciclovir] | little | little | – | –
9 | CCN(CC)CCCC(C)Nc1ccnc2cc(Cl)ccc12 (centres unmarked) [No 6-5, Chloroquine] | little | little | – | –
10 | Nc1nc(NC2CC2)c2ncn([C@H]3C=C[C@@H](CO)C3)c2n1 [abacavir, Abacavir] | – | – | 24.7 µM | IC50 (SARS-CoV-2 3CLpro): 12.6 µM
11 | CCN(CCO)CCCC(C)Nc1ccnc2cc(Cl)ccc12 (centres unmarked) [No 6-6, Hydroxychloroquine] | little | little | – | –
12 | CC(C)(C)NC(=O)[C@@H]1CN(Cc2cccnc2)CCN1C[C@@H](O)C[C@@H](Cc1ccccc1)C(=O)N[C@H]1c2ccccc2C[C@H]1O [indinavir, Indinavir] | – | – | 31.5 µM | –
13 | CC(C)c1nc(CN(C)C(=O)N[C@H](C(=O)N[C@@H](Cc2ccccc2)C[C@H](O)[C@H](Cc2ccccc2)NC(=O)OCc2cncs2)C(C)C)cs1 [ritonavir, Ritonavir] | did not block the proteolytic activity; also recorded: did not show clear inhibitory activity | – | – | –
14 | Cc1cccc(C)c1OCC(=O)N[C@@H](Cc1ccccc1)[C@@H](O)C[C@H](Cc1ccccc1)NC(=O)[C@H](C(C)C)N1CCCNC1=O [Lopinavir] | did not block the proteolytic activity | – | – | –
15 | CCCc1nn(C)c2c(=O)[nH]c(-c3cc(S(=O)(=O)N4CCN(C)CC4)ccc3OCC)nc12 [sildenafil, Sildenafil] | – | – | 12.5 µM | IC50 (SARS-CoV-2 3CLpro): 8.25 µM
